Here are results for 25 compounds from patent US20220387411A1, “TARGETED AUTOPHAGY CONJUGATES AND METHODS” (Frontier Medicines Corporation, priority 2019, published 2022).

For assay [1], the target named is T1, Recombinant pure human SQSTM1 protein (Homo sapiens, UniProt Q13501).
T1 construct: purchased Origene
In words: Inhibition of IA-Rhodamine labeling of SQSTM1 (gel-based, densitometry). It counts as binding. Particulars: 50 μM of test compound (initial screen); 30 min at 37° C., then 100 nM IA-Rhodamine 1 hour; inhibition of target labeling by densitometry. On the procedure: Recombinant pure human SQSTM1 protein was purchased from Origene. SQSTM1 protein (0.21 μg) was diluted into 50 μL of PBS and 1 μL of either DMSO (vehicle) or covalently acting small molecule (test compound) to achieve the desired concentration. After 30 min. at 37° C., the samples were treated with 100 nM IA-Rhodamine (tetramethylrhodamine-5-iodoacetamide dihydroiodide; Setareh Biotech, 6222, prepared in anhydrous DMSO) for 1 hour at room temperature. Samples were then diluted with 20 μL of 4× reducing Laemmli SDS sample loading buffer (Alfa Aesar) and heated at 90° C. for 5 min. The samples were separated on precast 4-20% Criterion TGX gels (Bio-Rad Laboratories, Inc.). Fluorescent imaging was performed on a ChemiDoc MP instrument (Bio-Rad Laboratories, Inc.), and inhibition of target labeling was assessed by densitometry using ImageJ software. The initial screen was performed using 50 μM of test compound.

For assay [2], the target named is Protein SQSTM1 (p62) (Homo sapiens, UniProt Q13501). Put plainly: Dose response of Compound 1 and Compound 19 against SQSTM1 (TAMRA fluorescence). The assay is classed as binding. The conditions noted are these: pre-incubated at 2, 0.5, 0.125 and 0.03 μM, then reactive probe TAMRA; FIG. 1. As to the method: Protein SQSTM1 (p62) was pre-incubated with either Compound 1 or Compound 19 at concentrations of 2, 0.5, 0.125, and 0.03 μM, followed by addition of the reactive probe 5-carboxytetramethylrhodamine (TAMRA). Measurements were made using TAMRA fluorescence. Silver staining of the protein was used as a protein loading control. Decreasing fluorescence of TAMRA indicates binding of the test compound.
Protein SQSTM1 (p62), sequence (Q13501 whole entry): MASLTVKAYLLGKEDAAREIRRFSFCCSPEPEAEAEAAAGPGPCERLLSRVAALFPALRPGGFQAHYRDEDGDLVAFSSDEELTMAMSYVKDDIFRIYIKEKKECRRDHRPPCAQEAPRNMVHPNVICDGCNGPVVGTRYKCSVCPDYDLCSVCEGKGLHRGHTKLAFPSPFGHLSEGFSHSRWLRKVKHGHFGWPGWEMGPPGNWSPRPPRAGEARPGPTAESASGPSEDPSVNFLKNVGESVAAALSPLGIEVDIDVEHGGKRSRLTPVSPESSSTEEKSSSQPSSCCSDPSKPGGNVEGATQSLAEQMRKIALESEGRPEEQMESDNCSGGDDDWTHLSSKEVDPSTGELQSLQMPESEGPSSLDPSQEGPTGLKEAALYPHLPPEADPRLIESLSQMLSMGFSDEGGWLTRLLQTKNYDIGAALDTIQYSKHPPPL

T1 sequence (Q13501 whole entry): as above

A word on the inhibition: it is the relative decrease from the control value, in per cent. With `COc1ccc(CN(C(=O)CCl)c2nccs2)c(OC)c1` [Compound 1, 2-chloro-N-(2,4-dimethoxybenzyl)-N-(thiazol-2-yl)acetamide], the inhibition at 50 µM in assay [1] came out at 79%. For the same compound, the “binding to SQSTM1 (decreasing TAMRA fluorescence)” value in assay [2] is “covalently bind to SQSTM1”.

Regarding `O=C(CCl)N1CCCCC(F)(F)C1` [Compound 19, 2-chloro-1-(3,3-difluoroazepan-1-yl)ethanone], in assay [1], the inhibition at 50 µM is 83%. Moreover, the “binding to SQSTM1 (decreasing TAMRA fluorescence)” value in assay [2] is listed as “covalently bind to SQSTM1”.

Turning to `CC1CCCCCN1C(=O)CCl` (stereo not drawn) [Compound 13, 2-chloro-1-(2-methylazepan-1-yl)ethan-1-one], the inhibition at 50 µM in assay [1] was determined as 49%.

Consider `O=C(CCl)N1CCCCC2(CCCCNC2)C1` (stereo not drawn) [Compound 70, 2-chloro-1-(2,9-diazaspiro[6.6]tridecan-2-yl)ethanone], for which the inhibition at 50 µM in assay [1] was found to be 22%.

`CC1CN(C(=O)CCl)CCCC1CNC(=O)OCc1ccccc1` (stereo not drawn) [Compound 28, Benzyl ((1-(2-chloroacetyl)-3-methylazepan-4-yl)methyl)carbamate]: the inhibition at 50 µM in assay [1] worked out at 59%.

On to `CC(C)(C)OC(=O)NC1CCCCN(C(=O)CCl)C1` (stereo not drawn) [Compound 37, Tert-butyl (1-(2-chloroacetyl)azepan-3-yl)carbamate], for which the inhibition at 50 µM in assay [1] stood at 30%.

For `O=C(CCl)N(Cc1ccccc1)C1CCCC[C@H]1CO` (stereo in doubt) [Compound 3, N-benzyl-2-chloro-N-(cis-2-(hydroxymethyl)cyclohexyl)acetamide], the inhibition at 50 µM in assay [1] was 58%.

In the case of `O=C(CCl)N1CCCS(=O)(=O)CC1` [Compound 52, 2-chloro-1-(1,1-dioxido-1,4-thiazepan-4-yl)ethanone], the inhibition at 50 µM in assay [1] came out at 40%.

For the compound `O=C(CCl)N(Cc1ccccc1)[C@H]1COC[C@@H]1O` [Compound 10, N-benzyl-2-chloro-N-[(3S,4R)-4-hydroxytetrahydrofuran-3-yl]acetamide], the inhibition at 50 µM in assay [1] was determined as 17%.

In the case of `O=C(CCl)N1CCCC(F)CC1` (stereo not drawn) [Compound 20, 2-chloro-1-(4-fluoroazepan-1-yl)ethanone], the inhibition at 50 µM in assay [1] was 9%.

In the case of `O=C(CCl)N1CCc2nccn2CC1` [Compound 56, 2-chloro-1-(8,9-dihydro-5H-imidazo[1,2-d][1,4]diazepin-7(6H)-yl)ethanone], in assay [1], the inhibition at 50 µM stood at 50%.

Regarding `CC1(C)CCCN(C(=O)CCl)CC1` [Compound 23, 2-chloro-1-(4,4-dimethylazepan-1-yl)ethanone], in assay [1], the inhibition at 50 µM was found to be 21%.

In the case of `O=C(CCl)N1CCC(O)C(F)CC1` (stereo not drawn) [Compound 48, 2-chloro-1-(4-fluoro-5-hydroxyazepan-1-yl)ethanone], the inhibition at 50 µM in assay [1] was found to be 7%.

For `CCN1CCCN(C(=O)CCl)CC1` [Compound 14, 2-chloro-1-(4-ethyl-1,4-diazepan-1-yl)ethan-1-one], the inhibition at 50 µM in assay [1] turned out to be 38%.

For the compound `O=C(CCl)N1Cc2ccnn2CC(O)C1` (stereo not drawn) [Compound 55, 2-chloro-1-(7-hydroxy-7,8-dihydro-4H-pyrazolo[1,5-a][1,4]diazepin-5(6H)-yl)ethanone], the inhibition at 50 µM in assay [1] turned out to be 35%.

Turning to `O=C(NCC1(O)CCCN(C(=O)CCl)CC1)OCc1ccccc1` (stereo not drawn) [Compound 34, Benzyl ((1-(2-chloroacetyl)-4-hydroxyazepan-4-yl)methyl)carbamate], the inhibition at 50 µM in assay [1] worked out at 14%.

Take `CC1(CNC(=O)OCc2ccccc2)CCCCN(C(=O)CCl)C1` (stereo not drawn) [Compound 26, Benzyl ((1-(2-chloroacetyl)-3-methylazepan-3-yl)methyl)carbamate]: in assay [1], the inhibition at 50 µM stood at 70%.

Turning to `CC1CN(C(=O)CCl)CCCO1` (stereo not drawn) [Compound 22, 2-chloro-1-(2-methyl-1,4-oxazepan-4-yl)ethanone], the “% inhibition” value in assay [1] is “not active”.

For `CC(C)(C)OC(=O)N1CCN(C(=O)CCl)CC(O)C1` (stereo not drawn) [Compound 18, Tert-butyl 4-(2-chloroacetyl)-6-hydroxy-1,4-diazepane-1-carboxylate], in assay [1], the inhibition at 50 µM is 21%.

On to `CC(C)(C)OC(=O)N1CCC(N(C(=O)CCl)C2CC2)CC1` [Compound 6, Tert-butyl 4-(2-chloro-N-cyclopropylacetamido)piperidine-1-carboxylate], for which the inhibition at 50 µM in assay [1] was found to be 56%.

On to `CC(C)(C)OC(=O)N1CC2CC1CN(C(=O)CCl)C2` (stereo not drawn) [Compound 61, Tert-butyl 3-(2-chloroacetyl)-3,6-diazabicyclo[3.2.1]octane-6-carboxylate], for which the inhibition at 50 µM in assay [1] was found to be 18%.

As for `CC(C)N(C(=O)CCl)C1CCCN(C(=O)OC(C)(C)C)CC1` (stereo not drawn) [Compound 8, Tert-butyl 4-(2-chloro-N-isopropylacetamido)azepane-1-carboxylate], the inhibition at 50 µM in assay [1] came out at 50%.

Take `O=C(NCC1(F)CCCN(C(=O)CCl)CC1)OCc1ccccc1` (stereo not drawn) [Compound 38, Benzyl ((1-(2-chloroacetyl)-4-fluoroazepan-4-yl)methyl)carbamate]: the inhibition at 50 µM in assay [1] amounted to 40%.

For the compound `CC1CCN(C(=O)CCl)CCC1O` (stereo not drawn) [Compound 45, 2-chloro-1-(4-hydroxy-5-methylazepan-1-yl)ethanone], in assay [1], the “% inhibition” value is on record as “not active”.

Regarding `CC(C)N(C(=O)CCl)C1CCCNCC1` (stereo not drawn) [Compound 64, N-(azepan-4-yl)-2-chloro-N-isopropyl-acetamide], the inhibition at 50 µM in assay [1] was 22%.
